In test [1] the test system is Trichostrongylus columbriformis. Kind of test: In vivo efficacy against T. colubriformis in infected gerbils. Particulars: gerbils infected with T. colubriformis; single oral dose of 50 mg/kg by gavage; worm counts four days post-treatment; % mortality as compared to negative control. The method, then:
In Vivo Evaluation of the Efficacy of Test Compounds Against T. colubriformis
In this evaluation, gerbils are infected with Trichostrongylus columbriformis infective larvae at a concentration of approximately 800 L3/mL. Larvae for gerbil infections are cultured from feces from sheep previously infected with T. colubriformis. One week post infection, test compounds are administered by gavage as a single oral dose of 50 mg/kg of body weight. For each group of 3 gerbils, 10 mg of test compound are dissolved in 2 mL of PEG 400:DMSO (1:2 v/v) and each animal is administered the test solution at a rate of 0.1 mL/10 g of body weight. […] All animals are observed daily for morbidity and mortality. Four days post-treatment, all animals are weighed and necropsied. Worm counts are conducted with the use of stereoscopes and counters.

In a further test the test system is C. elegans. The test can be described thus: Efficacy against nematodes (C. elegans motility rating). Particulars: dose 100 ppm, observations at 4 h and 24 h postimmersion. Set-up: key: 0: no effect; 7: reduced movement in 24 h; 8: dead in 24 h; 9: dead in 4 h. In short, it runs like this:
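Mixed-stage C. elegans (~50 per well, L1 to adult) in M9 buffer exposed to test compound at 100 ppm, 150 ppm or 200 μM final. Motility of larvae and adults scored under dissecting microscope at 4 h and 24 h.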

Compound `N#Cc1ccc(C2=C(O)C(=Cc3ccc4c(c3)OC(F)(F)O4)OC2=O)cc1` (mixture of isomers) had a Mortality in test [1] of 88.10%. The compound also yielded a Rating with C. elegans of 9.
For `N#Cc1ccc(C2=C(O)C(=Cc3ccc(Cl)s3)OC2=O)cc1` (mixture of isomers) the same measures were 20.60% and 9.
Take `O=C1OC(=Cc2ncccc2Br)C(O)=C1c1ccc(OC(F)(F)F)cc1` (mixture of isomers): the Mortality in test [1] is 26.90%. The compound also displayed a Rating in the test with C. elegans of 0.
`O=C1OC(=Cc2cnccc2Br)C(O)=C1c1ccc(OC(F)(F)F)cc1` (mixture of isomers) returned a Mortality in test [1] of 12.80%. The same compound registered a Rating with C. elegans of 9.
In test [1], `O=C1OC(=Cc2cnccc2-c2ccc(F)cc2)C(O)=C1c1ccc(OC(F)(F)F)cc1` (mixture of isomers) displayed a Mortality of 12.80%. The Rating in the test on C. elegans was found to be 9.
Take `O=C1OC(=Cc2cnccc2-c2cccs2)C(O)=C1c1ccc(OC(F)(F)F)cc1` (mixture of isomers): the Mortality in test [1] came out at 12.80%. In addition, the Rating in the test on C. elegans is reported as 9.
Consider `O=C1OC(=Cc2ccc(Cl)s2)C(O)=C1c1ccc(OC(F)(F)F)cc1` (mixture of isomers), for which, in test [1], the Mortality is 26.10%. In addition, in the test on C. elegans, the Rating worked out at 9.
In test [1], `COC1=C(c2ccc(Cl)cc2)C(=O)OC1=Cc1ccc(C#N)cc1` (mixture of isomers) [R=CH3; R1=4-Cl—C6H4**; R2=4-CN—C6H4] registered a Mortality of 0.00%. In addition, the Rating in the test on C. elegans is recorded as 0.
`O=C1OC(=Cc2ccc(C(F)(F)F)cc2)C(O)=C1c1cccc(C(F)(F)F)c1` (mixture of isomers) [R=H; R1=3-CF3—C6H4**; R2=4-CF3—C6H4] yielded a Mortality in test [1] of 0.00%. In addition, in the test on C. elegans, the Rating was determined as 9.
For `N#Cc1ccc(C=C2OC(=O)C(c3cccc(C(F)(F)F)c3)=C2O)cc1` (mixture of isomers) [R=H; R1=3-CF3—C6H4**; R2=4-CN—C6H4] the same measures were 0.00% and 9.
`O=C1OC(=Cc2ccc(F)cc2)C(O)=C1c1cccc(C(F)(F)F)c1` (mixture of isomers) [R=H; R1=3-CF3—C6H4**; R2=4-F—C6H4] came in with a Mortality in test [1] of 36.40%. Also, the Rating in the test on C. elegans was found to be 9.
`N#Cc1cccc(C2=C(O)C(=Cc3ccc(C(F)(F)F)cc3)OC2=O)c1` (mixture of isomers) [R=H; R1=3-CN—C6H4**; R2=4-CF3—C6H4] displayed a Mortality in test [1] of 0.00%. Also, the Rating in the test on C. elegans is given as 9.
`N#Cc1ccc(C=C2OC(=O)C(c3cccc(C#N)c3)=C2O)cc1` (mixture of isomers) [R=H; R1=3-CN—C6H4**; R2=4-CN—C6H4] displayed a Mortality in test [1] of 25.50%. The Rating in the test on C. elegans is given as 9.
With `N#Cc1cccc(C2=C(O)C(=Cc3ccc(Cl)cc3)OC2=O)c1` (mixture of isomers) [R=H; R1=3-CN—C6H4**; R2=4-Cl—C6H4], in test [1], the Mortality was found to be 0.00%. The Rating in the test with C. elegans is reported as 9.
`N#Cc1cccc(C2=C(O)C(=Cc3ccc(F)cc3)OC2=O)c1` (mixture of isomers) [R=H; R1=3-CN—C6H4**; R2=4-F—C6H4] had a Mortality in test [1] of 0.00%. For the same compound, in the test with C. elegans, the Rating turned out to be 7.
`O=C1OC(=Cc2ccc(C(F)(F)F)cc2)C(O)=C1c1cccc(Cl)c1` (mixture of isomers) [R=H; R1=3-Cl—C6H4**; R2=4-CF3—C6H4] gave a Mortality in test [1] of 57.90%. Further, in the test with C. elegans, the Rating is recorded as 9.
Regarding `N#Cc1ccc(C=C2OC(=O)C(c3cccc(Cl)c3)=C2O)cc1` (mixture of isomers) [R=H; R1=3-Cl—C6H4**; R2=4-CN—C6H4], the Mortality in test [1] was determined as 43.70%. In the test with C. elegans, this compound gave a Rating of 9.
In turn, `O=C1OC(=Cc2ccc(Cl)cc2)C(O)=C1c1cccc(Cl)c1` (mixture of isomers) [R=H; R1=3-Cl—C6H4**; R2=4-Cl—C6H4] yielded a Mortality in test [1] of 18.80%. Also, the Rating with C. elegans worked out at 9.
Consider `O=C1OC(=Cc2ccc(F)cc2)C(O)=C1c1cccc(Cl)c1` (mixture of isomers) [R=H; R1=3-Cl—C6H4**; R2=4-F—C6H4], for which the Mortality in test [1] is recorded as 3.00%. The Rating in the test with C. elegans is listed as 9.
For `N#Cc1ccc(C2=C(O)C(=Cc3cccc(C(F)(F)F)c3)OC2=O)cc1` (mixture of isomers) [R=H; R1=4-CN—C6H4**; R2=3-CF3—C6H4], in that order: 50.00% and 9.
With `N#Cc1ccc(C2=C(O)C(=Cc3ccc(F)cc3)OC2=O)cc1` (mixture of isomers) [R=H; R1=4-CN—C6H4**; R2=4-F—C6H4], the Mortality in test [1] worked out at 82.10%. In the test on C. elegans, the Rating came to 9.
On to `N#Cc1ccc(C2=C(O)C(=Cc3ccc(OC(F)(F)C(F)F)cc3)OC2=O)cc1` (mixture of isomers) [R=H; R1=4-CN—C6H4**; R2=4-OCF2CHF2—C6H4], for which, in test [1], the Mortality is recorded as 92.80%. Moreover, the Rating with C. elegans turned out to be 9.
In test [1], `N#Cc1ccc(C2=C(O)C(=Cc3ccc(OC(F)F)cc3)OC2=O)cc1` (mixture of isomers) [R=H; R1=4-CN—C6H4**; R2=4-OCHF2—C6H4] yielded a Mortality of 48.40%. The same compound gave a Rating in the test on C. elegans of 9.
For `O=C1OC(=Cc2ccc(Cl)cc2Cl)C(O)=C1c1ccc(Cl)cc1` (mixture of isomers) [R=H; R1=4-Cl—C6H4**; R2=2,4-diCl—C6H4] the same measures were 91.40% and 9.
The compound `O=C1OC(=Cc2ccc(Cl)c(Cl)c2)C(O)=C1c1ccc(Cl)cc1` (mixture of isomers) [R=H; R1=4-Cl—C6H4**; R2=3,4-diCl—C6H4] gave a Mortality in test [1] of 58.0%. Also, the Rating in the test on C. elegans was 9.
In the case of `O=C1OC(=Cc2ccc(C(F)(F)F)cc2)C(O)=C1c1ccc(F)cc1` (mixture of isomers) [R=H; R1=4-F—C6H4**; R2=4-CF3—C6H4], the Mortality in test [1] is on record as 25.60%. In the test with C. elegans, the Rating was 9.
Compound `N#Cc1ccc(C=C2OC(=O)C(c3ccc(F)cc3)=C2O)cc1` (mixture of isomers) [R=H; R1=4-F—C6H4**; R2=4-CN—C6H4] came in with a Mortality in test [1] of 14.70%. Besides, in the test on C. elegans, the Rating worked out at 9.
For `O=C1OC(=Cc2ccc(Cl)cc2)C(O)=C1c1ccc(F)cc1` (mixture of isomers) [R=H; R1=4-F—C6H4**; R2=4-Cl—C6H4] the same measures were 0.00% and 9.
In test [1], `O=C1OC(=Cc2ccc(F)cc2)C(O)=C1c1ccc(F)cc1` (mixture of isomers) [R=H; R1=4-F—C6H4**; R2=4-F—C6H4] gave a Mortality of 0.00%. The compound further gave a Rating with C. elegans of 9.
Consider `O=C1OC(=Cc2ccc(OC(F)(F)F)cc2)C(O)=C1c1ccc(F)cc1` (mixture of isomers) [R=H; R1=4-F—C6H4**; R2=4-OCF3—C6H4], for which the Mortality in test [1] was 51.60%. The compound further returned a Rating in the test on C. elegans of 9.
The compound `O=C1OC(=Cc2cc(C(F)(F)F)ccc2F)C(O)=C1c1ccc(OC(F)(F)F)cc1` (mixture of isomers) [R=H; R1=4-OCF3—C6H4**; R2=2-F-5-CF3—C6H3] registered a Mortality in test [1] of 29.50%. This compound registered a Rating in the test on C. elegans of 9.
Regarding `O=C1OC(=Cc2cc(Cl)cc(Cl)c2)C(O)=C1c1ccc(OC(F)(F)F)cc1` (mixture of isomers) [R=H; R1=4-OCF3—C6H4**; R2=3,5-diCl—C6H3], the Mortality in test [1] is 33.40%. Besides, in the test with C. elegans, the Rating came to 9.

The values above are taken from patent US7495027B2, “3-aryl-4-hydroxyfuranone compounds and the human and animal health use thereof” (Wyeth, priority 2003, dated 2009).
